By melting point is commonly meant the temperature of the solid-liquid transition. Consider `COc1ccccc1-c1sc2ccc(I)cc2c1-c1c(OC)c(C)nn(C)c1=O` [Compound No. 2-131, 4-(5-iodo-2-(2-methoxyphenyl)benzo[b]thiophen-3-yl)-5-methoxy-2,6-dimethylpyridazin-3(2H)-one], for which the melting point lay in the range of 161 to 163 °C.

The values above are taken from patent publication US20230085307A1, “PYRIDAZINONE COMPOUND AND HERBICIDE” (NISSAN CHEMICAL CORPORATION, priority 2019, published 2023).
